Test results as given in PMC4359714 (Naunyn-Schmiedeberg's Archives of Pharmacology, 2015).

Columns and labels:
[1] = test system: TRPM8-mediated icilin-induced wet-dog shakes in rats; test: Icilin-induced wet-dog shake (WDS) model; format: in vivo, rat
Procedure: The TRPM8 antagonist (1, 3, or 10 mg/kg) or vehicle control (5 % Tween 80 in OraPlus®) was administered p.o. 90 min prior to administration of icilin (0.5 mg/kg, 1 ml/kg, i.p., 100 % PEG 400). […] Rats were viewed through transparent Plexiglas® observation cylinders that were placed on a custom, opaque, plastic apparatus such that one rat could not view another rat.
In vivo IC50 and IC90 estimates using WDS model data were determined by fitting a sigmoidal dose-response curve to individual animal number of WDS versus resulting plasma concentration. Behavioral and electrophysiological data are expressed as mean ± standard error of the mean (S.E.M.). Results were analyzed using one-way analysis of variance (ANOVA) with Dunnett’s multiple-comparisons post-hoc test for significance relative to vehicle. […] Actual gram values are plotted on a logarithmic scale Y-axis of the figures for convenience. Statistical calculations and graphs were made using GraphPad Prism 5.01 (GraphPad Software Inc, San Diego, CA). Percent responders to menthol stimulation in the ex vivo skin-nerve preparation were compared under vehicle and antagonist conditions through the use of Fisher’s exact test. Responses of C fibers to increasing mechanical forces under vehicle or antagonist conditions were compared using a two-way ANOVA with a Bonferonni post-hoc analysis.

SNL rats = test: SNL-induced tactile allodynia (von Frey, up-down method); format: in vivo, rat; conditions: 200 mg/kg p.o.; p < 0.05 vs vehicle (4.4 ± 1.2 g)
Procedure: SNL surgery was performed using aseptic surgical techniques and a stereomicroscope (Kim and Chung [1992]). Spinal nerve injury was caused by ligating the left L5 and L6 spinal nerves, with special care to avoid damage to the L4 spinal nerve or surrounding area. More specifically, under gaseous anesthesia with a mixture of O2 and isoflurane (3 % for induction and 2 % for maintenance), skin was excised and the longissimus lumborum muscle, part of articular processes (L4-S1), and the fascia above L6 spinal nerve were carefully removed. […]
Behavioral testing Two weeks post surgery, mechanical sensitivity was measured by determining the median 50 % foot withdrawal threshold for von Frey filaments using the up-down method (Chaplan et al. [1994]). […] To avoid possible reflex responses, only abrupt withdrawal of the foot accompanied by pain indicative behaviors (namely paw flinching, shaking, or licking for more than 2 s) was recorded as a response. […]
In vivo IC50 and IC90 estimates using WDS model data were determined by fitting a sigmoidal dose-response curve to individual animal number of WDS versus resulting plasma concentration. Behavioral and electrophysiological data are expressed as mean ± standard error of the mean (S.E.M.). Results were analyzed using one-way analysis of variance (ANOVA) with Dunnett’s multiple-comparisons post-hoc test for significance relative to vehicle. […]

[2] = test system: cold hypersensitivity after CFA or peripheral nerve injury models; conditions: ref Knowlton et al. [2011]; cited from earlier work
rats = test: Open field activity; format: in vivo, rat; conditions: 5.6 mg/kg i.p., 30 min before; p < 0.05 vs vehicle (14,484 ± 1686 cm)
Procedure: Rats were habituated in a reversed light cycle room in home cages for at least 1 week and acclimated to the testing room for 1 h prior to dosing. TRPM8 antagonist (10, 30, or 100 mg/kg) or vehicle (5 % Tween 80 in OraPlus®) was injected 2 h before placing an animal in the open-field apparatus. Open-field activity was measured using a system that counts interruptions of a set of photobeams for the course of 60 min (Kinder Scientific, Poway, CA). To begin a session, animals were removed from the home cage and placed individually into an independent Plexiglas box (41 cm L × 41 cm W × 38 cm H) surrounded by a frame consisting of 32 photocells (16Y and 16X) that track the movement of the animal. Photobeam breaks were used as an indication of activity and were measured as the following parameters per minute: basic movements (beam breaks), distance traveled (cm), time spent (s), and number of repetitive beam breaks (i.e., stereotypic movement). Chlordiazepoxide, which consistently elicits a decrease in open field activity, was used as a positive control. Chlordiazepoxide was formulated in saline at 5.6 mg/kg i.p. and dosed 30 min before the start of the open field assay.

Compound: O=C1NC(c2cccc([N+](=O)[O-])c2)=CCN1c1ccccc1O [icilin, reference compound]
- ED80 for induction of wet-dog shakes ([1]; icilin i.p. 0.3, 0.5, 0.75, 1 mg/kg): less than 0.5 mg/kg
- ED90 for induction of wet-dog shakes ([1]; icilin i.p. 0.3–1.0 mg/kg dose-response, interval 0.28–0.75, data not shown): 0.46 mg/kg

Compound: NCC1(CC(=O)O)CCCCC1 [gabapentin, reference compound]
- tactile threshold (von Frey), SNL model (positive control) (SNL rats): 12.4 ± 1.2 g

Compound: COc1cc(CN(CCN)C(=O)OC(C)c2ccccc2)ccc1OCc1ccccc1 (centres unmarked) [PBMC]
- effect on cold hypersensitivity after CFA or peripheral nerve injury [2]: attenuated cold hypersensitivity

Compound: CNC1=Nc2ccc(Cl)cc2C(c2ccccc2)=[N+]([O-])C1 [chlordiazepoxide, Chlordiazepoxide, reference compound]
- total distance traveled, open field (positive control) (rats): 9423 ± 745 cm
